One assay concerns P. falciparum Dd2. Put plainly: Phenotypic screen: asexual blood stage EC50 determination (SYBR Green I). The following applies: values in Data S1 (not shown). Type of assay: cell-based. The protocol: Asexual blood stage parasites grown in the Chakrabarti laboratory were cultured based on a protocol by Trager and Jensen[57] with some modifications.[35] Culture was maintained at 4% hematocrit with human A+ whole blood obtained from the Florida OneBlood, in RPMI 1640 supplemented with 25 mM HEPES pH 7.4, 26 mM NaHCO3, 2% dextrose, 15 mg/L hypoxanthine, 25 mg/L gentamycin, and 0.5% Albumax II. Incubator conditions remained at 37°C and 5% CO2, 5% O2, 90% N2, or 95% air. For comparison screening using serum vs Albumax II, culture media was changed from RPMI with 0.5% Albumax II to RPMI with 10% human serum and maintained for a minimum of 2 weeks prior to assay use.
(§1) Inhibitor EC50 determination in 3D7 and Dd2 was performed as discussed in,[35] based on established protocols.[60] Assays utilized asynchronous culture at 1% parasitemia, 1% hematocrit. Culture was incubated with compound dilutions for 72 h followed by freezing at −80°C to promote lysis, then thawing and incubation for 45 min–1 h with 1× SYBR Green I in a lysis buffer (20 mM Tris-HCL, 0.08% saponin, 5 mM EDTA, and 0.8% Triton X-100). Fluorescence was read 485 nm excitation, 530 nm emission on a Synergy Neo2 multimode reader (BioTek Winsooki, VT) and EC50 curves were generated using CDD Vault (https://www.collaborativedrug.com/).

Assay [1] concerns wild-type YFP-expressing NF54. Description: MDR1 compound susceptibility assay, control line. Type of assay: cell-based, P. falciparum. The following applies: Plasmodium falciparum, NF54, MDR1, 72 h, read-out: IC50 in the wild-type YFP-expressing NF54. The protocol: (§2) As a control cell line, a parasite line expressing an aptamer-regulatable fluorescent protein integrated in the cg6 locus[84] was assayed in parallel. Synchronous ring-stage parasites in the presence (0.5 μM) and absence of aTc were dispensed into 384-well polystyrene microplates (Corning®), and compounds added using the Janus® platform (PerkinElmer). DMSO- and DHA (0.5 μM) served as normalization controls for maximal and minimum signal. Luminescence was measured after 72 h and IC50 values were obtained from normalized dose-response curves using GraphPad Prism Version 8.

The next assay deals with PfMDR1 cKD parasite line. Description: MDR1 compound susceptibility assay (Renilla luciferase). Format: cell-based, P. falciparum.
Text: A conditional knockdown parasite line was generated for the P. falciparum multi-drug resistance 1 (MDR1; PF3D7_0523000) following previously described procedures.[84]^,[85] The native PfMDR1 locus was engineered using CRISPR/SpCas9 to afford transcriptional fusion of 10 tandem TetR-DOZI binding aptamers in the 3′UTR for anhydrotetracycline (aTc)-dependent regulation of PfMDR1 expression.
as §2

For assay [2] the following is noted: concentrations up to 200 μM; propionate buffer pH 5.2, 16 h, 37°C; biological triplicate.
Protocol: Assay plates were incubated at 37°C with gentle shaking for 16 h. A combination of 7.5% SDS in a 0.1 M bicarbonate buffer (pH 9.1) was then added to microtiter wells at a 1:3 ratio with gentle mixing. Plates were incubated for 10 min to allow crystals to settle before taking 50 μL of supernatant and adding it to 200 μL of 2.5% SDS in a 0.1 M bicarbonate buffer, pH 9.1. After mixing, absorbances were read at 405 nm on a Synergy Neo2 multimode reader (BioTek, Winsooki, VT). […] Images of the 200 μM treatment or control prior to SDS quenching were taken using a Nikon Eclipse TE200 inverted microscope.
In assay [3] the test system is P. falciparum asexual blood stage parasites grown in 0.5% Albumax II. Put plainly: Antiplasmodial activity with Albumax II media. Format: cell-based. As to conditions: Plasmodium falciparum; RPMI with 0.5% Albumax II; mean ± SEM from 3 biological replicates. The protocol: (§3) Asexual blood stage parasites grown in the Chakrabarti laboratory were cultured based on a protocol by Trager and Jensen[57] with some modifications.[35] […] For comparison screening using serum vs Albumax II, culture media was changed from RPMI with 0.5% Albumax II to RPMI with 10% human serum and maintained for a minimum of 2 weeks prior to assay use.
as §1

The test system of assay [4] is P. falciparum asexual blood stage parasites grown in 10% human serum. Description: Antiplasmodial activity with serum media. Type of assay: cell-based. As to conditions: Plasmodium falciparum, 336 h; RPMI with 10% human serum, maintained minimum 2 weeks; mean ± SEM from 3 biological replicates. The protocol:
as §3, §1

With “Ac-Aib-L-Asn-L-Leu-L-Ile-Aib-L-Pro-D-Iva-L-Leu-Aib-L-Pro-L-Leu-NH2 [Harzianin HB I – amide, synthesized amide of an 11-AA peptaibol]”, the “activity of new isomers relative to their original counterparts” value in the assay on P. falciparum Dd2 is recorded as “decreased inhibition”.

What is called IC50 is the midpoint of a concentration-inhibition curve. For the compound `OC(c1cc(C(F)(F)F)nc2c(C(F)(F)F)cccc12)C1CCCCN1` (stereo not shown) [mefloquine, reference compound], the IC50 in assay [1] is 0.0004 µM; in the assay with PfMDR1 cKD parasite line (Plasmodium falciparum, MDR1, 72 h, read-out: IC50 when the protein was knocked down), 0.005 µM. Further, in the assay on PfMDR1 cKD parasite line (with (0.5 μM) vs without aTc, 72 h, luminescence), the “shift in sensitivity upon PfMDR1 knockdown” value is listed as around 12 fold.

The term EC50 denotes the concentration needed to bring the measured effect to its halfway point. On to `CCN(CC)CCCC(C)Nc1ccnc2cc(Cl)ccc12` (stereo not shown) [CQ, chloroquine, reference compound], for which, in assay [2], the “inhibition of β-hematin crystallization” value is “clear, dose-dependent inhibition”. Besides, the results for the concentration giving a half-maximal response (EC50) in assay [3] and in assay [4] were 0.16 ± 0.01 µM and 0.1 ± 0.02 µM, respectively.
